Columns and labels:
[1] = (§1) Half life in Swiss Webster mouse at 0.3 mg/kg, po administered as cassette dosing; format: ADME, organism-based; set-up: dose 0.3 mg/kg, route oral; conditions: Swiss Webster, in vivo
[2] = (§2) AUC in Swiss Webster mouse at 0.3 mg/kg, po administered as cassette dosing; format: ADME, organism-based, Plasma; set-up: dose 0.3 mg/kg, route oral; conditions: Swiss Webster, plasma
Mus musculus [3] = assay: (§3) Cmax in Swiss Webster mouse at 0.3 mg/kg, po administered as cassette dosing; format: ADME, organism-based; set-up: dose 0.3 mg/kg, route oral; conditions: in vivo
[4] = Lipophilicity, log P of the compound by shake-flask method; format: physicochemical; conditions: octanol/water
in vivo [5] = conditions: Swiss Webster, mouse, po, 0.3 mg/kg
[6] = as §3; format: ADME, organism-based; set-up: dose 0.3 mg/kg, route oral; conditions: Swiss Webster, in vivo
Mus musculus [7] = assay: as §1; format: ADME, organism-based; set-up: dose 0.3 mg/kg, route oral; conditions: in vivo
Mus musculus [8] = assay: as §2; format: ADME, organism-based, Plasma; set-up: dose 0.3 mg/kg, route oral; conditions: in vivo
[9] = AUC in Sprague-Dawley rat at 0.3 mg/kg, po administered as cassette dosing; format: ADME, organism-based; set-up: dose 0.3 mg/kg, route oral; conditions: plasma
[10] = Half life in Sprague-Dawley rat at 0.3 mg/kg, po administered as cassette dosing; format: ADME, organism-based; set-up: dose 0.3 mg/kg, route oral; conditions: in vivo
[11] = Cmax in Sprague-Dawley rat at 0.3 mg/kg, po administered as cassette dosing; format: ADME, organism-based; set-up: dose 0.3 mg/kg, route oral; conditions: in vivo
in vivo [12] = conditions: Sprague-Dawley, rat, po, 0.3 mg/kg

Compound	half-life [1] [h]	AUC [2] [µM·h]	logP [4]	Tmax (in vivo [5]) [h]	Cmax [6] [nM]	other results
CS(=O)(=O)N1CCC(NC(=O)Nc2ccc(OC(F)(F)F)cc2)CC1	15	5.3				Cmax (Mus musculus [3]): 370 nM
CC(=O)N1CCC(NC(=O)Nc2ccc(C(F)(F)F)cc2)CC1			2.74			
CS(=O)(=O)N1CCC(NC(=O)Nc2ccc(C(F)(F)F)cc2)CC1	22	4.67	2.94	8	130	
CC(C)S(=O)(=O)N1CCC(NC(=O)Nc2ccc(C(F)(F)F)cc2)CC1			3.39			
CCC(C)C(=O)N1CCC(NC(=O)N[C@H]2CC[C@H](CC)CC2)CC1 (stereo partly drawn)					5	t1/2 (Mus musculus [7]): 12 h; AUC (Mus musculus [8]): 0.037 µM·h
CC(C)C(=O)N1CCC(NC(=O)Nc2ccc(C(F)(F)F)cc2)CC1	6	19.7		4	1160	AUC [9]: 7.3 µM·h; half-life [10]: 5.4 h; Cmax [11]: 510 nM; Tmax (in vivo [12]): 4 h
O=C(Nc1ccc(C(F)(F)F)cc1)NC1CCN(C(=O)C2CC2)CC1	17	24.6	3.18	6	960	
CCC(C)C(=O)N1CCC(NC(=O)Nc2ccc(C(F)(F)F)cc2)CC1 (stereo not drawn)	6	3.29	3.83	0.5	320	
CC[C@H](C)C(=O)N1CCC(NC(=O)Nc2ccc(C(F)(F)F)cc2)CC1	5	4.94	3.84	1	435	AUC [9]: 5.72 µM·h; half-life [10]: 4.9 h; Cmax [11]: 790 nM; Tmax (in vivo [12]): 1 h
CC(C)CC(=O)N1CCC(NC(=O)Nc2ccc(C(F)(F)F)cc2)CC1			3.86			
O=C(Nc1ccc(C(F)(F)F)cc1)NC1CCN(C(=O)CC(F)(F)F)CC1	15.4	8.85	3.99	8	330	
O=C(Nc1ccc(C(F)(F)F)cc1)NC1CCN(C(=O)CCC(F)(F)F)CC1			3.66			
CCC(C)C(=O)N1CCC(NC(=O)Nc2ccc(C(C)C)cc2)CC1 (stereo not drawn)		0.2	4.21	0.5	90	
CCC(C)C(=O)N1CCC(NC(=O)Nc2ccc(C(C)(C)C)cc2)CC1 (stereo not drawn)			5.12			
CCC(C)C(=O)N1CCC(NC(=O)Nc2ccc(C(F)(C(F)(F)F)C(F)(F)F)cc2)CC1 (stereo not drawn)	4.5	1.6	4.96	2.5	135	
CCC(C)C(=O)N1CCC(NC(=O)Nc2ccc(OC(F)(F)F)cc2)CC1 (stereo not drawn)	6	3.3	3.98	2	235	
CCC(C)C(=O)N1CCC(NC(=O)NC2CCCCCC2)CC1 (stereo not drawn)	8.4	0.075		0.5	3	
CC(C)C(=O)N1CCC(NC(=O)Nc2ccc(OC(F)(F)F)cc2)CC1	9	19.5		5	900	AUC [9]: 12 µM·h; half-life [10]: 3.5 h; Cmax [11]: 890 nM; Tmax (in vivo [12]): 1 h
CC[C@H](C)C(=O)N1CCC(NC(=O)Nc2ccc(OC(F)(F)F)cc2)CC1	7.7	2.53	3.97	4	195	AUC [9]: 2.59 µM·h; half-life [10]: 4.2 h; Cmax [11]: 297 nM; Tmax (in vivo [12]): 4 h
O=C(Nc1ccc(C(F)(C(F)(F)F)C(F)(F)F)cc1)NC1CCN(C(=O)CC(F)(F)F)CC1	18.9	9.6	4.89	8	365	
CCS(=O)(=O)N1CCC(NC(=O)Nc2ccc(C(F)(F)F)cc2)CC1			3.08			
CCCS(=O)(=O)N1CCC(NC(=O)Nc2ccc(C(F)(F)F)cc2)CC1			3.39			
O=C(Nc1ccc(C(F)(F)F)cc1)NC1CCN(S(=O)(=O)C2CC2)CC1			3.39			
O=C(Nc1ccc(C(F)(F)F)cc1)NC1CCN(S(=O)(=O)CC(F)(F)F)CC1	25	4.27	3.42	8	100	
CCCCS(=O)(=O)N1CCC(NC(=O)Nc2ccc(C(F)(F)F)cc2)CC1	7.4	0.245	3.95	1	30	
CCCCS(=O)(=O)N1CCC(NC(=O)Nc2ccc(OC(F)(F)F)cc2)CC1	2	0.22	4.13	1.2	65	
CC(=O)N1CCC(NC(=O)NC23CC4CC(CC(C4)C2)C3)CC1 [AR9281]		0.183			30	
